Source: publication PMC10552892, “Ebselen oxide and derivatives are new allosteric HER2 inhibitors for HER2‐positive cancers” (Molecular Oncology, 2023)

What was measured:
NCI-N87 = experiment: Incucyte proliferation, single agents and combinations, NCI-N87; assay type: cell-based; conditions: Homo sapiens, NCI-N87, 96 h; read-out: Reduction/inhibition of cell proliferation
Description: (§1) (A–C) Proliferation curves of HER2‐positive (SKBR3, A; BT474, B; NCI‐N87, C) cancer cell lines treated or not with ebselen oxide (10 μM), lapatinib (10–1000 nM), or combination of these agents, as indicated. Proliferation was assessed overtime by Incucyte during 4 days. Data are mean ± SD (n = 8–12) of a representative experiment out of 4 (A), 3 (B), or 2 (C) independent experiments. […] Proliferation was assessed by Incucyte during 4 days. […] Scale bars are […].

[1] = test system: BT474 cells implanted in the mammary fat pad; experiment: Tumor growth in orthotopic BT474 xenograft in immunodeficient mice; assay type: in vivo; conditions: for Tumor size increase between day 19 and day 40: 5 days a week, vehicle 172%
Text: Experiments were done as already described on the TrGET platform of centre de Recherche de Cancérologie de Marseille (Institut Paoli Calmettes, Marseille, France) in accordance with the guidelines of the Institut National de la Santé et de la Recherche Médicale. The study was approved by the Animal Experimentation Ethics Committee of Marseille (APAFIS#2079‐2015092811101360 v3). Briefly, 7‐to‐8‐week‐old female NOD.Cg‐Prkdc scid/J (NSG) mice were purchased from Charles River France or bred in‐house and maintained on a 12‐h light and 12‐h dark cycle, under specific pathogen‐free conditions with sterilized food and water provided ad libitum. The initial body weight of the animals at the time of arrival was between 19 and 24 g. Mice were allowed to acclimatize to local conditions for 1 week before being injected with tumor cells. 5 × 10^6 BT474 cells resuspended in 100 μL (50% matrigel and 50% PBS) were implanted orthotopically in the mammary fat pad of NSG mice anesthetized with ketamine and xylazine and administered with the nonsteroidal anti‐inflammatory drug metacam (SC, 1 mg·kg^−1). Estradiol pellets were implanted subcutaneously. Metacam was administered 24 and 48 h postimplantation. Nineteen days after implantation, mice were randomized into […] to be administered intraperitoneally during 3 weeks with vehicle (10% DMSO in PBS, twice a day, 5 days a week, n = 8), 3 mg·kg^−1 ebselen oxide (twice a day, 5 days a week, n = 8), or […] ebselen oxide (twice a day, 5 days a week, n = 8). Mice weight and tumor volume were assessed 2–3 times a week using a caliper. At the end of the experiment, the collected tumors were photographed, weighed, and cut into halves to be embedded in OCT for immunohistofluorescence analysis or frozen in liquid nitrogen for western blot analysis.
The collected tumors embedded in OCT were cut into 5 μm thick sections and immobilized on superfrost™ plus microscope slides. Sections were fixed in 4% paraformaldehyde for 10 min at room temperature, washed three times in PBS, permeabilized for 10 min in PBS containing 0.1% Triton X100, washed with PBS, blocked for 30 min in PBS containing 3% BSA and incubated 1 h at room temperature with primary antibodies [Monoclonal anti‐HER2 (clone Cle2‐4001 and 3B5, IF‐1 : 100) or polyclonal anti‐KI67 (ref PA5‐16785, IF‐1 : 200)]. Sections were again washed three times in PBS and incubated 1 h at room temperature with fluorescence‐conjugated secondary antibodies from Jackson Immunoresearch Laboratories. After mounting, samples were scanned using a Lamina multilabel slide scanner (PerkinElmer). The proliferative index (mean percentage of Ki67‐positive nuclei) was quantified on 10 regions (area 0.2 mm^2) per slide (vehicle, n = 7; ebselen oxide n = 5) using IMAGEJ software.
We then explored the potential of ebselen oxide to reduce the growth of HER2‐overexpressing tumors in vivo. Nineteen days after orthotopic implantation of BT474 cells in the mammary fat pad of immunodeficient […] mice, mice received 3 or 5 mg·kg^−1 ebselen oxide, intraperitoneally (once or twice a day, as indicated, 5 days a week) or vehicle as a control. […] Conversely, in animals treated with 5 mg·kg^−1 ebselen oxide, it increased only by 44% in mice treated with 5 mg·kg^−1 ebselen oxide, corresponding to a significant growth inhibition index of 75% at day 40 (Fig. 5C–E). […] Of note, there was an excellent correlation between tumor volume and tumor weight (R ^2 = 0.9611, Fig. 5H). […] We next analyzed biochemically the intratumoral level of activated HER2 and downstream signaling in vehicle‐ and 5 mg·kg^−1 ebselen oxide‐treated mice.

[2] = test system: HBMECs transfected with pRK5 empty vector; experiment: Proliferation of HBMECs transfected with pRK5 empty vector (Incucyte); conditions: 5 μM, Incucyte 5 days
Description: (§2) 25.10^3 cells/96‐well transfected HBMECs or 9.10^3 cancer cells were seeded and monitored with an Incucyte S3 imaging system (Sartorius, Goettingen, Germany) using 10× objective every 2 h during 5 days. Confluency analyses were performed using the dedicated Incucyte analysis system.
(§3) Proliferation was assessed by Incucyte during 5 days.
(§4) Representative quantification of the proliferation (B) is shown where data are mean ± sem (n=8-12).
vehicle, 5-10 µM Ebselen oxide or 5 µM AG1478.

p95HER2 = p95HER2 (Homo sapiens, UniProt P04626); experiment: Activation of gD-tagged p95HER2 in HBMECs, western blot; conditions: 5–10 μM, 24 h
Description: Cells were washed with cold PBS and lysed in a buffer containing 1% Triton, 50 mM Tris–HCl pH 8.8, 25 mM NaCl, 1 mM EDTA, 1 mM Na3VO4, 1 mM AEBSF, 10 μg·mL^−1 each of aprotinin/leupeptin/pepstatin or lysed in Laemmli buffer. Proteins were separated by SDS/PAGE and transferred to nitrocellulose (Schleicher & Schuell, Keene, NH, USA). Membranes were blocked for 1 h in TBS/0.1% Tween20/3% BSA and probed overnight with indicated antibodies. Peroxidase‐coupled secondary antibodies were used to reveal antibody binding using the ECL substrate (Pierce, Thermo Fisher Scientific, Waltham, MA, USA) and Fusion FX (Vilber Lourmat, Collégien, France) chemoluminescence acquisition system. Quantifications were done with IMAGEJ software (1.53e) (NIH, USA).
Vector encoding wild‐type glycoprotein D‐tagged form of HER2 (gD‐HER2‐WT) [18] was a kind gift of Dr M. Sliwkowski (Genentech, San Francisco, CA, USA). […] Vector encoding the HER2p95 [19] was provided by Dr J. Baselga.
(A–C) Lysates were then analyzed by western blot using antibodies against pY1248 HER2 and HER2. Representative blot and data quantification (mean ± SEM) are shown out of 3 (A), 3 (B), or 4 (C) independent experiments. One‐way ANOVA followed by Dunnett's multiple comparison test, *P < 0.05, **P < 0.01, ***P < 0.001.

BT474 = experiment: Incucyte proliferation, single agents and combinations, BT474; assay type: cell-based; conditions: Homo sapiens, BT-474, 96 h; read-out: Reduction/inhibition of cell proliferation
Description: as §1

[3] = test system: HBMECs overexpressing V842I HER2; experiment: Proliferation of HBMECs overexpressing V842I HER2 (Incucyte, MTT)
Description: Cell medium was removed and replaced with fresh culture medium. 3‐(4,5‐dimethylthiazol‐2‐yl)‐2,5‐diphenyltetrazolium bromide (MTT reagent) was added at a final concentration of 1.2 mM for 2–4 h at 37 °C. Produced formazan was solubilized with DMSO and measured by 540 nm absorbance reading.
as §2
(D–F) Proliferation was assessed by Incucyte during 5 days. Data are mean ± SEM of a representative experiment out of two independent experiments. Two‐way ANOVA followed by Bonferroni's multiple comparison test, ***P < 0.001, ****P < 0.0001.
(A-B) HBMECs transfected with empty vector (pRK5) or vectors encoding gD-HER2 WT, the truncated gD-
as §3, §4
ANOVA followed byBonferroni’s multiple comparison test, *** P<0.001, **** P<0.0001.
vehicle, 5-10 µM Ebselen oxide or 5 µM AG1478. Proliferation was assessed by MTT assay during 3 days.
Data are mean ± sem (n=3). Two-way ANOVA followed by Bonferroni’s multiple comparison test, * P<0.05 **

Chain of p95HER2 (P04626 611-1255 limits assumed): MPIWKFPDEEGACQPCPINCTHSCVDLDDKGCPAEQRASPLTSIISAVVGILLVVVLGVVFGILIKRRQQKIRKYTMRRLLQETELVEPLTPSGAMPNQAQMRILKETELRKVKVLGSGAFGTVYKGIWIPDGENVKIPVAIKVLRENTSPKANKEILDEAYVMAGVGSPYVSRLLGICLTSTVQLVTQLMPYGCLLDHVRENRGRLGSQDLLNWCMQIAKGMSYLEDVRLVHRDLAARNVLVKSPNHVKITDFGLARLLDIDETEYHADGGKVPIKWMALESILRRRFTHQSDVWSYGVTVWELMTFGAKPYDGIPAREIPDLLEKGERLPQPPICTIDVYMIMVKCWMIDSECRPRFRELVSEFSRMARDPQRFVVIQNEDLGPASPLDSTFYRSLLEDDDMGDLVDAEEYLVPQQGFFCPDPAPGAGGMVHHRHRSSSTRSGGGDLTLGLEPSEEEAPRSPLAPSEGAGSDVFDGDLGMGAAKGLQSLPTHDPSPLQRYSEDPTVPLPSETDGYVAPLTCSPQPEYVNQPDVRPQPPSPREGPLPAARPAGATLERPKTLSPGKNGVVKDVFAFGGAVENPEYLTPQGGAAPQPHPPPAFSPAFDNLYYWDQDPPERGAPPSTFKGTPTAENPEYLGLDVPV

## O=C1c2ccccc2[Se](=O)N1c1ccccc1 (stereo not drawn) [Ebselen oxide, ebselen oxide]
NCI-N87
  inhibition at 10 µM: 45%
[1]; 3 mg·kg−1 i.p.
  Tumor size increase between day 19 and day 40: 112%
[1]; 3 mg·kg−1 i.p., day 40
  Reduction in tumor size and weight compared to vehicle: only a little reduction
[1]; 5 mg·kg−1, immunofluorescence on tumor sections
  Drop of tumor proliferation index (Ki67) vs vehicle: 32%
[1]; 5 mg·kg−1, western blot
  Decrease of HER2 activation in tumor lysates vs vehicle: 30%
  Inhibition of Akt activation in tumor lysates: 50%
  Inhibition of ERK activation in tumor lysates: 45%
[1]; 5 mg·kg−1 i.p.
  Tumor size increase between day 19 and day 40: 44%
[1]; 5 mg·kg−1 i.p., day 40
  Growth inhibition index: 75%
[1]; 5 mg·kg−1 i.p., tumors collected at day 40
  Drop in tumor weight compared to vehicle-treated group: 40%
[1]; 3 and 5 mg·kg−1, recovered after reduction from two to one injection per day
  Mice body weight after day 30: decrease of mice body weight
[1]; 3 and 5 mg·kg−1 i.p. twice a day
  Tolerability (mice body weight): well‐tolerated until day 30
[1]; mouse model, ebselen oxide administration
  Decrease in the mammary tumor volume (discussion): 40%
[2]
  Effect on proliferation of cells transfected with pRK5 empty vector: did not affect
p95HER2
  Inhibition of p95HER2 activation: strongly inhibited
BT474
  inhibition at 10 µM: 30%
[3]; 5 μM, Incucyte 5 days
  Inhibition of cell proliferation induced by overexpression of V842I HER2: almost totally inhibited
[3]; MTT 3 days, V842I
  Inhibition of proliferation compared with AG1478 (5 μM): similar
